Test: Measurement of log P values by HPLC on reversed phase columns (EEC directive 79/831 Annex V.A8; methods [a] pH 2.3, [b] pH 2.7, [c] pH 7.8)
Format: physicochemical
Protocol: Measurement of log P-values:
Measurement of log P values was performed according EEC directive 79/831 Annex V.A8 by HPLC (High Performance Liquid Chromatography) on reversed phase columns with the following methods:
^[a] Measurement was done at pH 2.3 with 0.1% phosphoric acid and acetonitrile as eluent with a linear gradient from 10% acetonitrile to 95% acetonitrile.
^[b] measurement of LC-MS was done at pH 2.7 with 0.1% formic acid in water and with acetonitrile (contains 0.1% formic acid) as eluent with a linear gradient from 10% acetonitrile to 95% acetonitrile.
^[c] Measurement with LC-MS was done at pH 7.8 with 0.001 molar ammonium hydrogen carbonate solution in water as eluent with a linear gradient from 10% acetonitrile to 95% acetonitrile.
Calibration was done with not branched alkan2-ones (with 3 to 16 carbon atoms) with known log P-values (measurement of log P values using retention times with linear interpolation between successive alkanones).. lambda-maX-values were determined using UV-spectra from 200 nm to 400 nm and the peak values of the chromatographic signals.

[1] = method [b]: LC-MS, pH 2.7, 0.1% formic acid in water / acetonitrile
[2] = method [c]: LC-MS, pH 7.8, 0.001 molar ammonium hydrogen carbonate / acetonitrile
[3] = method [b]: LC-MS at pH 2.7, 0.1% formic acid in water / acetonitrile
[4] = method [c]: LC-MS at pH 7.8, 0.001 molar ammonium hydrogen carbonate in water / acetonitrile
[5] = method [a]: HPLC, pH 2.3, 0.1% phosphoric acid / acetonitrile

COC(CNC(=O)c1c(C(F)F)nn(C)c1Cl)c1ccc(Cl)cc1Cl (stereo not drawn) [Compound 44]
logP [1]: 3.48^[b]

COC(c1ccc(Cl)cc1Cl)C(C)(C)NC(=O)c1ccccc1Cl (stereo not drawn) [Compound 75]
logP [1]: 4.59^[b] | logP [2]: 4.54^[c];

COC(c1ccc(Cl)cc1Cl)C1(NC(=O)c2ccccc2[N+](=O)[O-])CC1 (stereo not drawn) [Compound 211]
log P [3]: 3.33^[b] | log P [4]: 3.26^[c];

COC(c1ccccc1Cl)C(C)NC(=O)c1ccccc1[N+](=O)[O-] (stereo not drawn) [Compound 138]
log P [3]: 2.82^[b] | log P [4]: 2.78^[c];

COC(c1ccc(Cl)cc1)C(C)NC(=O)c1c(F)cccc1C(F)(F)F (stereo not drawn) [Compound 134]
log P [3]: 3.65^[b] | log P [4]: 3.61^[c];

COC(c1ccc(Cl)cc1Cl)C(C)N(C(=O)c1ncc(Cl)cc1C(F)(F)F)C1CC1 (stereo not drawn) [Compound 159]
log P [3]: 5.39^[b]

COC(c1cc(Cl)cc(Cl)c1)C(C)NC(=O)c1c(C(F)F)nn(C)c1F (stereo not drawn) [Compound 43]
logP [1]: 3.70^[b]

COC(c1ccc(Cl)cc1Cl)C(C)N(C(=O)c1cccnc1C(F)F)C1CC1 (stereo not drawn) [Compound 171]
log P [3]: 3.92^[b]

CCC(NC(=O)c1c(C(F)F)nn(C)c1Cl)C(OC)c1ccc(Cl)cc1Cl (stereo not drawn) [Compound 48]
logP [1]: 4.18^[b]

COC(c1ccccc1Cl)C(C)NC(=O)c1sc(C)nc1C(F)(F)F (stereo not drawn) [Compound 212]
log P [3]: 3.34^[b] | log P [4]: 3.31^[c];

COC(c1ccc(Cl)cc1Cl)C1(NC(=O)c2ccccc2I)CC1 (stereo not drawn) [Compound 152]
log P [3]: 3.92^[b] | log P [4]: 3.88^[c];

COC(c1ccc(F)cc1)C(C)NC(=O)c1c(F)cccc1C(F)(F)F (stereo not drawn) [Compound 189]
log P [3]: 3.24^[b] | log P [4]: 3.19^[c];

COC(c1ccc(F)cc1)C(C)NC(=O)c1ccccc1C (stereo not drawn) [Compound 188]
log P [3]: 2.91^[b] | log P [4]: 2.86^[c];

COC(c1ccccc1Cl)C(C)NC(=O)c1ccccc1C(F)(F)F (stereo not drawn) [Compound 145]
log P [3]: 3.45^[b] | log P [4]: 3.41^[c];

COC(c1ccc(Cl)cc1Cl)C(C)N(C(=O)C1=C(C)OCCS1)C1CC1 (stereo not drawn) [Compound 172]
log P [3]: 4.30^[b]

CCOC(c1ccc(Cl)cc1Cl)C(C)NC(=O)c1c(F)cccc1C(F)(F)F (stereo not drawn) [Compound 193]
log P [3]: 4.55^[b] | log P [4]: 4.53^[c];

CCC(NC(=O)c1cccnc1C(F)F)C(OC)c1ccc(Cl)cc1Cl (stereo not drawn) [Compound 90]
logP [1]: 3.35^[b]

CCOC(c1ccc(Cl)cc1Cl)C(C)NC(=O)c1c(C(F)F)nn(C)c1F (stereo not drawn) [Compound 47]
logP [1]: 4.20^[b]

CCC(NC(=O)c1cccnc1Cl)C(OC)c1ccc(Cl)cc1Cl (stereo not drawn) [Compound 89]
logP [1]: 3.33^[b]

COC(c1ccc(Cl)cc1Cl)C1(NC(=O)c2cc(C)nn2C)CC1 (stereo not drawn) [compound 125]
log P [3]: 3.05^[b]

COC(c1ccc(Cl)cc1Cl)C(C)N(C(=O)c1cccnc1C(F)(F)F)C1CC1 (stereo not drawn) [Compound 173]
log P [3]: 4.44^[b]

COC(c1ccc(Cl)cc1Cl)C(C)(C)NC(=O)c1occc1Br (stereo not drawn) [Compound 80]
logP [1]: 4.59^[b] | logP [2]: 4.37^[c];

COC(c1ccc(Cl)cc1Cl)C(C)NC(=O)c1cc(C)nn1C(F)F (stereo not drawn) [compound 115]
logP [1]: 3.73^[b]

CCOC(c1ccc(Cl)cc1Cl)C(C)NC(=O)c1ccccc1C(F)F (stereo not drawn) [Compound 199]
log P [3]: 4.45^[b] | log P [4]: 4.40^[c];

Cc1ccc(COC(CNC(=O)c2sccc2C)c2ccc(Cl)cc2)cc1 (stereo not drawn) [compound 5]
logP [5]: 4.62^[a]

COC(c1ccc(Cl)cc1Cl)C(C)NC(=O)c1c(C)c(C)nn1C(F)F (stereo not drawn) [Compound 116]
log P [3]: 3.97^[b] | log P [4]: 3.84^[c];

COC(c1ccc(Cl)cc1Cl)C(C)(C)NC(=O)c1c(F)cccc1F (stereo not drawn) [Compound 77]
logP [1]: 4.29^[b] | logP [2]: 4.24^[c];

COC(c1ccc(Cl)cc1Cl)C1(NC(=O)c2c(F)cccc2C(F)(F)F)CC1 (stereo not drawn) [Compound 149]
log P [3]: 4.00^[b] | log P [4]: 3.95^[c];

COC(c1ccc(Cl)cc1)C(C)(C)NC(=O)c1ccccc1Cl (stereo not drawn) [Compound 84]
logP [1]: 4.12^[b] | logP [2]: 3.87^[c];

COC(c1ccc(Cl)cc1Cl)C(C)N(C(=O)c1cccnc1Cl)C1CC1 (stereo not drawn) [Compound 170]
log P [3]: 4.03^[b]

CCC(NC(=O)c1cccnc1C(F)(F)F)C(OC)c1ccc(Cl)cc1Cl (stereo not drawn) [Compound 91]
logP [1]: 3.70^[b]

COC(c1ccc(Cl)cc1Cl)C(C)N(C(=O)c1nccnc1C(F)(F)F)C1CC1 (stereo not drawn) [Compound 174]
log P [3]: 4.69^[b]

CCOC(c1ccc(Cl)cc1Cl)C(C)NC(=O)c1ccccc1F (stereo not drawn) [Compound 195]
log P [3]: 4.66^[b] | log P [4]: 4.65^[c];

COC(c1ccc(Cl)cc1)C(C)(C)NC(=O)c1c(F)cccc1F (stereo not drawn) [Compound 82]
logP [1]: 3.78^[b] | logP [2]: 3.79^[c];

COC(c1ccc(Cl)cc1)C(C)(C)NC(=O)c1sccc1Cl (stereo not drawn) [Compound 86]
logP [1]: 4.72^[b] | logP [2]: 4.43^[c];

CCOC(c1ccc(Cl)cc1Cl)C(C)NC(=O)c1ccccc1C (stereo not drawn) [Compound 198]
log P [3]: 4.35^[b] | log P [4]: 4.33^[c];

COC(c1ccc(Cl)cc1Cl)C1(NC(=O)c2ccnn2C(F)F)CC1 (stereo not drawn) [compound 121]
log P [3]: 3.46^[b]

COC(c1ccc(Cl)cc1)C(C)(C)NC(=O)c1ccccc1F (stereo not drawn) [Compound 83]
logP [1]: 4.24^[b] | logP [2]: 3.99^[c];

COC(c1ccc(F)cc1)C(C)NC(=O)c1cccnc1Cl (stereo not drawn) [Compound 184]
log P [3]: 2.25^[b] | log P [4]: 2.23^[c];

COC(c1ccc(F)cc1)C(C)NC(=O)c1ccccc1F (stereo not drawn) [Compound 183]
log P [3]: 3.04^[b] | log P [4]: 3.02^[c];

COC(c1ccc(Cl)cc1)C(C)NC(=O)c1ccccc1[N+](=O)[O-] (stereo not drawn) [Compound 139]
log P [3]: 2.83^[b] | log P [4]: 2.93^[c];

COC(c1ccc(Cl)cc1Cl)C1(NC(=O)c2cccnc2C(F)F)CC1 (stereo not drawn) [Compound 97]
logP [1]: 3.06^[b]

COC(c1cc(Cl)cc(Cl)c1)C(C)NC(=O)c1cccnc1Cl (stereo not drawn) [Compound 94]
logP [1]: 3.17^[b]

COC(c1ccc(Cl)cc1Cl)C(C)(C)NC(=O)c1ccccc1C(F)(F)F (stereo not drawn) [Compound 76]
logP [1]: 4.68^[b] | logP [2]: 4.62^[c];

CCOC(c1ccc(Cl)cc1Cl)C(C)NC(=O)c1ccccc1Br (stereo not drawn) [Compound 200]
log P [3]: 4.43^[b] | log P [4]: 4.39^[c];

COC(c1ccccc1Cl)C(C)NC(=O)c1cccnc1 (stereo not drawn) [Compound 207]
log P [3]: 1.94^[b] | log P [4]: 2.09^[c];

CCOC(c1ccc(Cl)cc1Cl)C(C)NC(=O)c1nccnc1Cl (stereo not drawn) [Compound 214]
log P [3]: 3.89^[b] | log P [4]: 3.85^[c];

Cc1ccsc1C(=O)NCC(OCC(C)C)c1ccc(Cl)cc1 (stereo not drawn) [compound 7]
logP [5]: 4.49^[a]

COC(CN(C(=O)c1cccnc1Cl)C1CC1)c1ccc(Cl)cc1Cl (stereo not drawn) [Compound 167]
log P [3]: 3.76^[b]

COC(c1ccccc1Cl)C(C)NC(=O)c1ccccc1C (stereo not drawn) [Compound 148]
log P [3]: 3.26^[b] | log P [4]: 3.23^[c];

COC(c1ccccc1Cl)C(C)NC(=O)c1ccccc1F (stereo not drawn) [Compound 147]
log P [3]: 3.44^[b] | log P [4]: 3.42^[c];
